Data reported in paper PMC7576608, “Mechanisms of telomerase inhibition by oxidized and therapeutic dNTPs” (Nature Communications, 2020).
Several values for one entry are separate records, joined by “and”; a condition that tells them apart may be missing. Identical values can stand only once. Like-named read-outs stand apart in the source and are kept apart here.

Biological target: telomerase (Homo sapiens, UniProt O14746)
Test: Telomerase repeat processivity IC50: modified dNTP titrated into reactions with all four natural dNTPs
Format: biochemical
Design: made in house; anti-FLAG immunopurification, eluted with 3xFLAG peptide
Settings: for YIntercept (line fit of ln(100-%LB) vs # telomere repeats) / ln(100-%LB): n1-n3; for Processivity R 1/2: replicates n1-n3
Excerpt: In order to better understand the ability of modified dNTPs to compete with natural dNTPs for telomerase utilization, we added modified dNTPs to reactions containing all four natural dNTPs. […] The calculated IC50 determines the concentration required to reduce repeat processivity in the bulk reactions by half. However, it is important to note that bulk experiments cannot distinguish effects on individual telomeres, since extended telomeres mask unextended telomeres. Incorporation of a chain terminator during any step will terminate extension of the affected telomere, and just five critically short telomeres are sufficient to trigger senescence. Therefore, repeat processivity IC50 values are not necessarily an indicator of the inhibitory potency, but provide information on selectivity for modified dNTPs compared to natural dNTPs. […] The ability to purify sufficient quantities of tcTERT enables characterization of the catalytic nucleotide addition by pre-steady-state single turnover kinetics using a defined DNA–RNA primer–template substrate. The catalytic efficiency of incorporating a single dNTP is measured by dividing the observed nucleotide incorporation rate constant, kpol, by the equilibrium dissociation constant for dNTP binding to the tcTERT–primer–template complex (Kd)[44].
The reactions were started by the addition of 3 μl of immunopurified telomerase eluent, incubated at 37 °C for 1 h, then terminated with 2 μl of […] and heat inactivated at 65 °C for 20 min. An equal volume of loading buffer (94% formamide, 0.1× TBE, 0.1% bromophenol blue, 0.1% xylene cyanol) was added to the reaction eluent. The samples were heat denatured for 10 min at 100 °C and loaded onto a 14% denaturing acrylamide gel (7 M urea, 1× TBE) and electrophoresed for 90 min at constant 38 W. Samples were imaged using a Typhoon phosphorimager (GE Healthcare). Percent primer extension was calculated with ImageQuant TL 8.2 by measuring the intensity of each product band and dividing by the total radioactivity in the lane or total products, as indicated in the figure legends.
The processivity was calculated as described[40],[67]. Repeat processivity from the direct telomerase extension assays was calculated as R1/2 (equivalent to the half-time for decay in an exponential time course), which represents the median length of DNA product formed, expressed in terms of number of telomere repeats. First, the total volume counts for each product band extend by one or more telomere repeats were obtained using Image Quant TL. The volume counts were then normalized by dividing by the number of radiolabeled guanosines incorporated into the extended products based on the number of repeats added, termed corrected volume (corr vol). The “percent left behind” (%LB) was calculated for each product band by summing the counts for that product band and for every product band below (shorter products), divided by the total counts for the lane, and then multiplied by 100. The natural log of (100−%LB) was calculated and then plotted vs. repeat number for each product length. A linear regression line was fit to the data to determine the slope of the line. The R1/2 value was calculated by dividing −ln(2) by the slope of each fitted line (R1/2 = −ln(2)/slope).
Supplementary Fig 8. IC50 values for telomerase processivity inhibition. Telomerase reactions were conducted with cellular relevant concentrations of all four natural dNTPs and increasing concentrations of the modified dNTP analog from 0 to 10,000 μM to calculate. (a) The natural log of (100-%LB) was plotted vs repeat number. A straight line was fit to the data and the R1/2 value was calculated by dividing –ln(2) by the slope of each line. Plots shown from one experiment are […]

[1] = fit of R 1/2 vs log(concentration), 8-oxo-dATP, replicates N1-N3

telomerase, sequence (O14746 whole entry): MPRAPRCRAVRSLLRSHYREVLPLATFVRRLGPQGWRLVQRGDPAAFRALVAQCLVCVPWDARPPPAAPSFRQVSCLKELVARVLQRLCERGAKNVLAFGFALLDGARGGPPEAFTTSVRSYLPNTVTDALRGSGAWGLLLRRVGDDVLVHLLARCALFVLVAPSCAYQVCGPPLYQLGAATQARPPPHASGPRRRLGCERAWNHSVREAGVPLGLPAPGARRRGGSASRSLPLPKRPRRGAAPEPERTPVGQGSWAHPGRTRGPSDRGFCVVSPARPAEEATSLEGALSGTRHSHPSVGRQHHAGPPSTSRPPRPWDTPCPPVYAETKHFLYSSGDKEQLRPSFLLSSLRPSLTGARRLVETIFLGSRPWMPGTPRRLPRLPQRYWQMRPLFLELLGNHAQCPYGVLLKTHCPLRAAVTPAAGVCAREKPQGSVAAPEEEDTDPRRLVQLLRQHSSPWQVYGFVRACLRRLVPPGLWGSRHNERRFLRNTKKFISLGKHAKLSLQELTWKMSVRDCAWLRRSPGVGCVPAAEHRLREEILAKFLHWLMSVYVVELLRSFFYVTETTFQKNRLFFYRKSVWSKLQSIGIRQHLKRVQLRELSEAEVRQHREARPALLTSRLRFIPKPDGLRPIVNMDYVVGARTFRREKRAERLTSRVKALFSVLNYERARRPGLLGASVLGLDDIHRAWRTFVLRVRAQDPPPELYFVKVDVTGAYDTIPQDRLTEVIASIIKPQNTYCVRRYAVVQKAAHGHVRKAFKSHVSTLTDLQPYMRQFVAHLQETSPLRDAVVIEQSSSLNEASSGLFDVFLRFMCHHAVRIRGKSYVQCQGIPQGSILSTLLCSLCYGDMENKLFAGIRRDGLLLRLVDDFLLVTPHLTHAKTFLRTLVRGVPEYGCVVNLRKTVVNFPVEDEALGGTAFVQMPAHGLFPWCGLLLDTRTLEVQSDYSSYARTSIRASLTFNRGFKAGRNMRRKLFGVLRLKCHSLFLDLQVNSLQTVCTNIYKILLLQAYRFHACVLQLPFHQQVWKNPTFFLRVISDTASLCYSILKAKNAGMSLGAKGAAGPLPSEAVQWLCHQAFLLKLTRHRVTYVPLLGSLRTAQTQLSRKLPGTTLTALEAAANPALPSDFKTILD

Nc1ncnc2c1[nH]c(=O)n2C1CC(O)C(COP(=O)(O)OP(=O)(O)OP(=O)(O)O)O1 (centres unmarked) [8-oxo-dATP]
YIntercept (line fit of ln(100-%LB) vs # telomere repeats) (8-oxo-dATP 31μM): 3.85 and 3.01 and 3.93
ln(100-%LB) (8-oxo-dATP 31μM, telomere repeat 3): 2.65 and 1.66 and 2.57
ln(100-%LB) (8-oxo-dATP 31μM, telomere repeat 4): 2.41 and 1.27 and 2.30
Processivity R 1/2 (8-oxo-dATP 31.25 μM): 2.10 (2×) and 1.89
YIntercept (line fit of ln(100-%LB) vs # telomere repeats) (8-oxo-dATP 62μM): 3.73 and 4.08 and 3.84
ln(100-%LB) (8-oxo-dATP 62μM, telomere repeat 2): 3.20
ln(100-%LB) (8-oxo-dATP 62μM, telomere repeat 3): 2.53 and 2.54 and 2.74
ln(100-%LB) (8-oxo-dATP 62μM, telomere repeat 4): 2.27 and 2.24 and 2.50
ln(100-%LB) (8-oxo-dATP 62μM, telomere repeat 5): 2.02 and 1.94 and 2.24
ln(100-%LB) (8-oxo-dATP 62μM, telomere repeat 6): 1.71 and 1.56 and 1.91
ln(100-%LB) (8-oxo-dATP 62μM, telomere repeat 7): 1.38 and 1.06 and 1.53
ln(100-%LB) (8-oxo-dATP 62μM, telomere repeat 8): 1.13 and 0.68 and 1.26
Processivity R 1/2 (8-oxo-dATP 62.5 μM): 1.60 (2×) and 2.26
YIntercept (line fit of ln(100-%LB) vs # telomere repeats) (8-oxo-dATP 250μM): 3.94 and 3.80 and 3.85
Processivity R 1/2 (8-oxo-dATP 250 μM): 1.82 (2×) and 2.54
ln(100-%LB) (8-oxo-dATP 250μM, telomere repeat 2): 3.33 and 3.42 and 3.45
ln(100-%LB) (8-oxo-dATP 250μM, telomere repeat 3): 2.64 and 2.77 and 2.84
ln(100-%LB) (8-oxo-dATP 250μM, telomere repeat 4): 2.37 and 2.53 and 2.60
ln(100-%LB) (8-oxo-dATP 250μM, telomere repeat 5): 2.09 and 2.29 and 2.37
ln(100-%LB) (8-oxo-dATP 250μM, telomere repeat 6): 1.75 and 2.02 and 2.10
ln(100-%LB) (8-oxo-dATP 250μM, telomere repeat 7): 1.29 and 1.68 and 1.81
ln(100-%LB) (8-oxo-dATP 250μM, telomere repeat 8): 0.96 and 1.40 and 1.57
ln(100-%LB) (8-oxo-dATP 250μM, telomere repeat 9): 0.67 and 1.15 and 1.32
YIntercept (line fit of ln(100-%LB) vs # telomere repeats) (8-oxo-dATP 500μM): 3.61 and 4.18 and 3.88
Processivity R 1/2 (8-oxo-dATP 500 μM): 1.42 (2×) and 2.03
ln(100-%LB) (8-oxo-dATP 500μM, telomere repeat 2): 3.10 and 3.59 and 3.36
ln(100-%LB) (8-oxo-dATP 500μM, telomere repeat 3): 2.50 and 3.01 and 2.60
ln(100-%LB) (8-oxo-dATP 500μM, telomere repeat 4): 2.24 and 2.80 and 2.29
ln(100-%LB) (8-oxo-dATP 500μM, telomere repeat 5): 1.94 and 2.56 and 2.01
ln(100-%LB) (8-oxo-dATP 500μM, telomere repeat 6): 1.62 and 2.28 and 1.70
ln(100-%LB) (8-oxo-dATP 500μM, telomere repeat 7): 1.26 and 1.91 and 1.22
ln(100-%LB) (8-oxo-dATP 500μM, telomere repeat 8): 0.97 and 1.63 and 0.93
YIntercept (line fit of ln(100-%LB) vs # telomere repeats) (8-oxo-dATP 750μM): 4.26 and 4.00 and 3.87
Processivity R 1/2 (8-oxo-dATP 750 μM): 1.36 (2×) and 2.25
ln(100-%LB) (8-oxo-dATP 750μM, telomere repeat 2): 3.17 and 3.44 and 3.29
ln(100-%LB) (8-oxo-dATP 750μM, telomere repeat 3): 2.50 and 2.85 and 2.65
ln(100-%LB) (8-oxo-dATP 750μM, telomere repeat 4): 2.17 and 2.63 and 2.39
ln(100-%LB) (8-oxo-dATP 750μM, telomere repeat 5): 1.81 and 2.42 and 2.15
ln(100-%LB) (8-oxo-dATP 750μM, telomere repeat 6): 1.40 and 2.17 and 1.87
YIntercept (line fit of ln(100-%LB) vs # telomere repeats) (8-oxo-dATP 1000μM): 4.48 and 4.47 and 4.44
Processivity R 1/2 (8-oxo-dATP 1000 μM): 0.53 (2×) and 0.83
YIntercept (line fit of ln(100-%LB) vs # telomere repeats) (8-oxo-dATP 1500μM): 5.00 and 4.48 and 4.84
Processivity R 1/2 (8-oxo-dATP 1500 μM): 0.00
Processivity R 1/2 (8-oxo-dATP 2000 μM): 0.00
IC50 (cellular relevant natural dNTPs, modified dNTP titrated 0 to 10,000 μM, based on repeat processivity, mean ± SD, read-out: Telomerase processivity IC50): 946 ± 49 µM
LogIC50 (fit of R 1/2 vs log(concentration μM), 8-oxo-dATP, replicates N1-N3): 2.95 and 2.99 (2×)
Bottom (best-fit value) [1]: -0.12 and 0.69 and -0.000954
HillSlope [1]: -4.30 and -46.77 and -16.13
Span (best-fit value) [1]: 1.94 and 1.65 and 2.29
Top (best-fit value) [1]: 1.81 and 2.33 and 2.29
IC50 (log of processivity IC50 (concentration in μM), Supplementary Fig 8b, read-out: Log IC50 (converted)): 794 µM
IC50 (repeat processivity R 1/2, 8-oxo-dATP, mean of N1-N3, read-out: Mean IC50): 946 µM
IC50 (repeat processivity R 1/2, 8-oxo-dATP, single replicates N1-N3, read-out: IC50): 890 µM and 982 µM and 966 µM
